Measured values published in US20250230193A1, “CYCLIC COMPOUND HAVING SELECTIVE KRAS INHIBITORY EFFECT ON HRAS AND NRAS” (CHUGAI SEIYAKU KABUSHIKI KAISHA, priority 2022, published 2025).
*1 amine or outer side, *2 acyl side, *3 side chain or, on linkers, in order; H or OH if unused. Where a SMILES comes first, the peptide text is derived from it. Bridges are numbered along the chain shown (N, C = ends). [ ]: non-standard residue; d: D form. The star is where a group is joined. hPhe(3-Cl-4-CF3) = N[C@@H](CCc1ccc(C(F)(F)F)c(Cl)c1)C(=O)O; NPrPhe(4-CF3) = CCCN[C@@H](Cc1ccc(C(F)(F)F)cc1)C(=O)O; X30 = CCN([C@H](C(=O)[*:2])C1CCCC1)[*:1]; NMeGly(cPent) = CN[C@H](C(=O)O)C1CCCC1; Hyp = O=C(O)[C@@H]1C[C@@H](O)CN1; NMeD = CN[C@@H](CC(=O)O)C(=O)O; NMeL = CN[C@@H](CC(C)C)C(=O)O; Morpholide = C1CN(*)CCO1; NMeA = CN[C@@H](C)C(=O)O; Ac5c = NC1(C(=O)O)CCCC1; Aze = O=C(O)[C@@H]1CCN1; Sar = CNCC(=O)O

How the values were obtained:
[1] = target: GDP-bound HRAS wild-type protein (Homo sapiens, UniProt P01112); test: Binding to HRAS by surface plasmon resonance (SPR), Single Cycle Kinetics
[2] = target: GDP-bound NRAS wild-type protein (Homo sapiens, UniProt P01111); test: Binding to NRAS by surface plasmon resonance (SPR), Single Cycle Kinetics
[3] = SPR, GDP-bound HRAS wild-type vs GDP-bound KRAS wild-type
[4] = SPR, GDP-bound NRAS wild-type vs GDP-bound KRAS wild-type

Chain of GDP-bound NRAS wild-type protein (P01111 whole entry): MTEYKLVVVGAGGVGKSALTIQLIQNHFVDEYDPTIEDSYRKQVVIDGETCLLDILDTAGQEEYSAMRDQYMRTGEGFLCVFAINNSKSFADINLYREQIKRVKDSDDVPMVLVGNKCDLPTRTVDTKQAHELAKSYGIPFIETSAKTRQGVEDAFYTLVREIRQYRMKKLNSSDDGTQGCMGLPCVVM
Chain of GDP-bound HRAS wild-type protein (P01112 whole entry): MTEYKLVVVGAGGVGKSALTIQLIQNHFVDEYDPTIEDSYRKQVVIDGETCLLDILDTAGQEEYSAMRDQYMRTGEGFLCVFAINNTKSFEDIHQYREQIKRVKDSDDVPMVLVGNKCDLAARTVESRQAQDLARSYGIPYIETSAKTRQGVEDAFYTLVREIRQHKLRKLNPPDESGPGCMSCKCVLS

CCC[C@H]1C(=O)N[C@@H]([C@@H](C)CC)C(=O)N(C)CC(=O)N(C)[C@H]2C/C=C\CCN(C2=O)[C@@H](Cc2ccc(C(F)(F)F)cc2)C(=O)N(C)CC(=O)N[C@@H](CCc2ccc(C(F)(F)F)c(OC)c2)C(=O)N2C[C@H](OCC)C[C@H]2C(=O)NC2(CC(C)(C)C2)C(=O)N(C)[C@@H](CC2CC2)C(=O)N(C)[C@H](C(=O)N(C)C)CC(=O)N1C [PP2809]
HRAS/KRAS (ratio of KD value with respect to GDP-bound HRAS wild-type protein to KD value with respect to KRAS) ([1]; class symbols): A (a compound having 10 or more and less than 20 is denoted as A) | NRAS/KRAS (ratio of KD value with respect to GDP-bound NRAS wild-type protein to KD value with respect to KRAS) ([2]; class symbols): A (a compound having 10 or more and less than 20 is denoted as A)

CCCOC[C@H]1C(=O)N[C@@H]([C@@H](C)CC)C(=O)N2CCC[C@H]2C(=O)N(C)[C@H]2C/C=C\CCN(C2=O)[C@@H](Cc2ccc(C)cc2)C(=O)N(C)CC(=O)N[C@@H](CCc2ccc(C(F)(F)F)c(OC)c2)C(=O)N2C[C@H](OCC)C[C@H]2C(=O)N(C)C2(CCC2)C(=O)N(C)[C@@H](C2CCCC2)C(=O)N(C)[C@H](C(=O)N(C)C)CC(=O)N1C [PP2334]
HRAS/KRAS (ratio of KD value with respect to HRAS to KD value with respect to KRAS) [1, 3]: B (a compound having 3 or more and less than 10 is denoted as B) | NRAS/KRAS (ratio of KD value with respect to NRAS to KD value with respect to KRAS) [2, 4]: A (a compound having 10 or more and less than 20 is denoted as A)

CCO[C@H](C)[C@@H]1NC(=O)[C@H](CC(C)C)N(C)C(=O)C[C@@H](C(=O)N(C)C)N(C)C(=O)[C@H](C2CCCC2)N(C)C(=O)C2(CC(C)(C)C2)NC(=O)[C@@H]2C[C@H](C)CN2C(=O)[C@H](CCc2ccc(C(F)(F)F)c(OC)c2)NC(=O)CN(C)C(=O)[C@H](Cc2ccc(C)cc2)N2CC/C=C\C[C@@H](C2=O)N(C)C(=O)[C@@H]2CCCN2C1=O [PP2418]
HRAS/KRAS (ratio of KD value with respect to HRAS to KD value with respect to KRAS) [1, 3]: B (a compound having 3 or more and less than 10 is denoted as B) | NRAS/KRAS (ratio of KD value with respect to NRAS to KD value with respect to KRAS) [2, 4]: A (a compound having 10 or more and less than 20 is denoted as A)

CCCN1C(=O)CN(C)C(=O)[C@@H]2CCN2C(=O)[C@H]([C@@H](C)CC)NC(=O)[C@H](CC(C)C)N(C)C(=O)C[C@@H](C(=O)N2CCOCC2)NC(=O)[C@H](C2CCCC2)N(C)C(=O)C2(CCCC2)NC(=O)[C@@H]2C[C@@H](OCC)CN2C(=O)[C@H](CCc2ccc(C(F)(F)F)c(Cl)c2)NC(=O)CN(C)C(=O)[C@@H]1Cc1ccc(C(F)(F)F)cc1 [PP0341] ([NMeL]I[Aze][Sar][NPrPhe(4-CF3)][Sar][hPhe(3-Cl-4-CF3)][Hyp](Et)[Ac5c][NMeGly(cPent)]D-Morpholide; lactam N-11)
HRAS/KRAS (ratio of KD for GDP-bound HRAS wild-type to KD for KRAS) ([1]; SPR): B (a compound having 3 or more and less than 10 is denoted as B) | NRAS/KRAS (ratio of KD for GDP-bound NRAS wild-type to KD for KRAS) ([2]; SPR): B (a compound having 3 or more and less than 10 is denoted as B)

CCC[C@H]1C(=O)N[C@@H]([C@@H](C)CC)C(=O)N(C)CC(=O)N(C)[C@H]2CCCCN(C2=O)[C@@H](Cc2ccc(C(F)(F)F)cc2)C(=O)N(C)CC(=O)N[C@@H](CCc2cc(F)c(C(F)(F)F)c(F)c2)C(=O)N2C[C@H](OCC)C[C@H]2C(=O)NC2(CCC2)C(=O)N(C)[C@@H](C2CCCC2)C(=O)N(C)[C@H](C(=O)N(C)C)CC(=O)N1C [PP0694]
HRAS/KRAS (ratio of KD value with respect to GDP-bound HRAS wild-type protein to KD value with respect to KRAS) ([1]; SPR): C (A compound having a KD ratio of 0.1 or more and less than 3 is denoted as C) | NRAS/KRAS (ratio of KD value with respect to GDP-bound NRAS wild-type protein to KD value with respect to KRAS) ([2]; SPR): C (A compound having a KD ratio of 0.1 or more and less than 3 is denoted as C)

CC[C@H](C)[C@@H]1NC(=O)[C@H](CC(C)C)N(C)C(=O)C[C@@H](C(=O)N2CCOCC2)N(C)C(=O)[C@H](C2CCCC2)N(C)C(=O)C2(CCCC2)NC(=O)[C@@H]2CCCN2C(=O)[C@H](CCc2ccc(C(F)(F)F)c(Cl)c2)NC(=O)CN(C)C(=O)[C@H](C2CCCC2)N(CC)C(=O)[C@@H]2CCN2C(=O)[C@H](C)N(C)C1=O [PP0003] ([NMeL]I[NMeA][Aze][X30][Sar][hPhe(3-Cl-4-CF3)]P[Ac5c][NMeGly(cPent)][NMeD]-Morpholide; lactam N-11)
HRAS/KRAS (ratio of KD for GDP-bound HRAS wild-type to KD for KRAS) ([1]; SPR): C (A compound having a KD ratio of 0.1 or more and less than 3 is denoted as C) | NRAS/KRAS (ratio of KD for GDP-bound NRAS wild-type to KD for KRAS) ([2]; SPR): C (A compound having a KD ratio of 0.1 or more and less than 3 is denoted as C)

CC[C@H](C)[C@@H]1NC(=O)[C@H](CC2CC2)N(C)C(=O)C[C@@H](C(=O)N(C)C)N(C)C(=O)[C@H](C2CCCC2)N(C)C(=O)C2(CCC2)N(C)C(=O)[C@@H]2C[C@@H](C)CN2C(=O)[C@H](CCc2cc(F)c(C(F)(F)F)c(F)c2)NC(=O)CN(C)C(=O)[C@H](Cc2ccc(C)cc2)N2CC/C=C\C[C@@H](C2=O)N(C)C(=O)[C@@H]2CCCN2C1=O [PP1801]
HRAS/KRAS (ratio of KD value for HRAS to KD value for KRAS) ([1]; KD ratio, GDP-bound HRAS wild-type vs GDP-bound KRAS wild-type, SPR): B (a compound having 3 or more and less than 10 is denoted as B) | NRAS/KRAS (ratio of KD value for NRAS to KD value for KRAS) ([2]; KD ratio, GDP-bound NRAS wild-type vs GDP-bound KRAS wild-type, SPR): A (a compound having 10 or more and less than 20 is denoted as A)
